Experimental data from ChEMBL document CHEMBL5696443 (Clin Cancer Res, 2016).
The source made the active and inactive calls. The calls are words filed in the database; no cut-off is given here.

Tests used:
Mus musculus [1] = assay: In vivo inhibition of ALK signaling in SCID Beige mouse xenografted with ALK positive human KARPAS-299 cells assessed as reduction in phosphorylated STAT3 level at 10 to 50 mg/kg, po administered as single dose and measured at 6 to 24 hrs by immunoblot analysis; assay type: functional, organism-based; conditions: dose 10-50 mg/kg, time 6-24 hrs
[2] = biological target: CDK9/cyclin T1 (Homo sapiens) (UniProt O60563+P50750); assay: Inhibition of human CDK9/CyclinT1 at 1 uM using KTFCGTPEYLAPEVRREPRILSEEEQEMFRDFDYIADWC as substrate in presence of [gamma33P]-ATP by HotSpot assay relative to control; assay type: protein-complex assay
[3] = biological target: Serine/threonine-protein kinase B-raf (Homo sapiens) (UniProt P15056); assay: Inhibition of human BRAF at 1 uM using MEK1 as substrate in presence of [gamma33P]-ATP by HotSpot assay relative to control
[4] = biological target: Calcium/calmodulin-dependent protein kinase kinase 1 (Homo sapiens) (UniProt Q8N5S9); assay: Inhibition of human CAMKK1 at 1 uM using MBP as substrate in presence of [gamma33P]-ATP by HotSpot assay relative to control
Ephrin type-B receptor 1 = Ephrin type-B receptor 1 (Homo sapiens, UniProt P54762); assay: Inhibition of human EPHB1 using poly (Glu, Tyr)4:1 as substrate in presence of [gamma33P]-ATP by HotSpot assay
[5] = tested on: EML4-ALK (Homo sapiens), Q9UM73+Q9HC35 [E1210K]; conditions: BaF3, dose 200.0 nmol/L, time 3-5 weeks
[6] = biological target: Death-associated protein kinase 3 (Homo sapiens) (UniProt O43293); assay: Inhibition of human DAPK3 at 1 uM using KKLNRTLSFAEPG as substrate in presence of [gamma33P]-ATP by HotSpot assay relative to control
[7] = tested on: EML4-ALK (Homo sapiens), Q9UM73+Q9HC35 [G1202R]; conditions: BaF3, time 3-5 weeks
[8] = biological target: Tyrosine-protein kinase BTK (Homo sapiens, UniProt Q06187); assay: Inhibition of human BTK using poly (Glu, Tyr)4:1 as substrate in presence of [gamma33P]-ATP by HotSpot assay
[9] = biological target: MAP kinase-activated protein kinase 3 (Homo sapiens) (UniProt Q16644); assay: Inhibition of human MAPKAPK3 at 1 uM using KKLNRTLSVA as substrate in presence of [gamma33P]-ATP by HotSpot assay relative to control
[10] = tested on: Epidermal growth factor receptor (Homo sapiens), P00533 [L858R,T790M]; conditions: BaF3, time 72.0 hrs
[11] = biological target: G protein-coupled receptor kinase 6 (Homo sapiens) (UniProt P43250); assay: Inhibition of human GRK6 at 1 uM using casein as substrate in presence of [gamma33P]-ATP by HotSpot assay relative to control
[12] = biological target: Calcium/calmodulin-dependent protein kinase type IV (Homo sapiens) (UniProt Q16566); assay: Inhibition of human CAMK4 at 1 uM using KKLNRTLSFAEPG as substrate in presence of [gamma33P]-ATP by HotSpot assay relative to control
[13] = biological target: Calcium/calmodulin-dependent protein kinase type 1 (Homo sapiens) (UniProt Q14012); assay: Inhibition of human CAMK1a at 1 uM using KKALRRQETVDAL as substrate in presence of [gamma33P]-ATP by HotSpot assay relative to control
[14] = biological target: Ribosomal protein S6 kinase alpha-2 (Homo sapiens, UniProt Q15349); assay: Inhibition of human RPS6kA2 using KKLNRTLSVA as substrate in presence of [gamma33P]-ATP by HotSpot assay
[15] = biological target: MAP kinase-interacting serine/threonine-protein kinase 1 (Homo sapiens, UniProt Q9BUB5, T385D); assay: Inhibition of human MNK1 T385D mutant using MBP as substrate in presence of [gamma33P]-ATP by HotSpot assay
[16] = biological target: Serine/threonine-protein kinase 4 (Homo sapiens, UniProt Q13043); assay: Inhibition of human STK4 using KKSRGDYMTMQIG as substrate in presence of [gamma33P]-ATP by HotSpot assay
[17] = biological target: Ribosomal protein S6 kinase beta-1 (Homo sapiens) (UniProt P23443); assay: Inhibition of human P70S6K at 1 uM using KKRNRTLTK as substrate in presence of [gamma33P]-ATP by HotSpot assay relative to control
[18] = biological target: Dual specificity mitogen-activated protein kinase kinase 1 (Homo sapiens) (UniProt Q02750); assay: Inhibition of human MAP2K1 at 1 uM using ERK2 as substrate in presence of [gamma33P]-ATP by HotSpot assay relative to control
[19] = biological target: Mitogen-activated protein kinase 14 (Homo sapiens) (UniProt Q16539); assay: Inhibition of human MAPK14 at 1 uM using MBP as substrate in presence of [gamma33P]-ATP by HotSpot assay relative to control
NCI-H23 = conditions: time 72 hrs
Insulin receptor = Insulin receptor (Homo sapiens, UniProt P06213); assay: Inhibition of human INSR using poly (Glu, Tyr)4:1 as substrate in presence of [gamma33P]-ATP by HotSpot assay
[20] = biological target: Ephrin type-A receptor 3 (Homo sapiens) (UniProt P29320); assay: Inhibition of human EPHA3 at 1 uM using poly (Glu, Tyr)4:1 as substrate in presence of [gamma33P]-ATP by HotSpot assay relative to control
[21] = tested on: EML4-ALK (Homo sapiens), Q9UM73+Q9HC35 [E1210K]; conditions: BaF3, time 3-5 weeks
Mus musculus [22] = assay: In vivo inhibition of ALK signaling in SCID Beige mouse xenografted with ALK positive human KARPAS-299 cells assessed as reduction in phosphorylated ALK level at 10 to 50 mg/kg, po administered as single dose and measured at 6 to 24 hrs by immunoblot analysis; assay type: functional, organism-based; conditions: dose 10-50 mg/kg, time 6-24 hrs
[23] = biological target: LIM domain kinase 1 (Homo sapiens) (UniProt P53667); assay: Inhibition of human LIMK1 at 1 uM using cofilin as substrate in presence of [gamma33P]-ATP by HotSpot assay relative to control
BaF3 [24] = assay: Antitumor activity against mouse BaF3 cells expressing native EML4-ALK implanted in mouse assessed as tumor regression at 25 mg/kg, po administered once daily and measured after 8 days relative to control; assay type: functional; conditions: time 8 day
BaF3 [25] = assay: In vivo inhibition of ALK signaling in mouse implanted with mouse BaF3 cells expressing EML4-ALK L1196M mutant assessed as inhibition of ALK phosphorylation at 25 mg/kg, po administered as single dose and measured at 6 to 24 hrs by ELISA; assay type: functional, organism-based; conditions: time 6-24 hrs

Chain of Death-associated protein kinase 3 (Homo sapiens) (O43293 whole entry, looked up): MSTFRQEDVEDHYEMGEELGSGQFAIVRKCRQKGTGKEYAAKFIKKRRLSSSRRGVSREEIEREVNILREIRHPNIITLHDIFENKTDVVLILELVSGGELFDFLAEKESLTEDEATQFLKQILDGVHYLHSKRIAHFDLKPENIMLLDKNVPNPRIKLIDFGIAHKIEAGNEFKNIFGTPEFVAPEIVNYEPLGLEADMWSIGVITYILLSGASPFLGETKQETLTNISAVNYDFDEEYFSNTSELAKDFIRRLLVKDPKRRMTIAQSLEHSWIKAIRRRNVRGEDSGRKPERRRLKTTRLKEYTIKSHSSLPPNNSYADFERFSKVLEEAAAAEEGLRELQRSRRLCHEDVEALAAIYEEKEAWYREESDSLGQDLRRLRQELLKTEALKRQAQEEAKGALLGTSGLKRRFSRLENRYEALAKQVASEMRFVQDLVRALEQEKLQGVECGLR
Chain of Calcium/calmodulin-dependent protein kinase type IV (Homo sapiens) (Q16566 whole entry): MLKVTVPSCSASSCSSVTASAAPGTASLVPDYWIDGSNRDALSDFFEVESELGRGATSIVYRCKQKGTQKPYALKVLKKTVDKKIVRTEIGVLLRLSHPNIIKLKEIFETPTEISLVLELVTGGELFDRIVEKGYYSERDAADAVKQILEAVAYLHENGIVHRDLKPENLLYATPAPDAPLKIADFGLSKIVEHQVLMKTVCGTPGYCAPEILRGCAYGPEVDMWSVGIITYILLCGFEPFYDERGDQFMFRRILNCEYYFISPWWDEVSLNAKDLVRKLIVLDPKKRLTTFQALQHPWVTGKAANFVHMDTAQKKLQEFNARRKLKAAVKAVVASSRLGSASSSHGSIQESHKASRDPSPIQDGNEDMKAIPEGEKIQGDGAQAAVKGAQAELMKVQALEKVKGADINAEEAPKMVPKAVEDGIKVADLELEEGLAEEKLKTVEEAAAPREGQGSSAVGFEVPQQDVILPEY
Chain of Ephrin type-A receptor 3 (Homo sapiens) (P29320 whole entry): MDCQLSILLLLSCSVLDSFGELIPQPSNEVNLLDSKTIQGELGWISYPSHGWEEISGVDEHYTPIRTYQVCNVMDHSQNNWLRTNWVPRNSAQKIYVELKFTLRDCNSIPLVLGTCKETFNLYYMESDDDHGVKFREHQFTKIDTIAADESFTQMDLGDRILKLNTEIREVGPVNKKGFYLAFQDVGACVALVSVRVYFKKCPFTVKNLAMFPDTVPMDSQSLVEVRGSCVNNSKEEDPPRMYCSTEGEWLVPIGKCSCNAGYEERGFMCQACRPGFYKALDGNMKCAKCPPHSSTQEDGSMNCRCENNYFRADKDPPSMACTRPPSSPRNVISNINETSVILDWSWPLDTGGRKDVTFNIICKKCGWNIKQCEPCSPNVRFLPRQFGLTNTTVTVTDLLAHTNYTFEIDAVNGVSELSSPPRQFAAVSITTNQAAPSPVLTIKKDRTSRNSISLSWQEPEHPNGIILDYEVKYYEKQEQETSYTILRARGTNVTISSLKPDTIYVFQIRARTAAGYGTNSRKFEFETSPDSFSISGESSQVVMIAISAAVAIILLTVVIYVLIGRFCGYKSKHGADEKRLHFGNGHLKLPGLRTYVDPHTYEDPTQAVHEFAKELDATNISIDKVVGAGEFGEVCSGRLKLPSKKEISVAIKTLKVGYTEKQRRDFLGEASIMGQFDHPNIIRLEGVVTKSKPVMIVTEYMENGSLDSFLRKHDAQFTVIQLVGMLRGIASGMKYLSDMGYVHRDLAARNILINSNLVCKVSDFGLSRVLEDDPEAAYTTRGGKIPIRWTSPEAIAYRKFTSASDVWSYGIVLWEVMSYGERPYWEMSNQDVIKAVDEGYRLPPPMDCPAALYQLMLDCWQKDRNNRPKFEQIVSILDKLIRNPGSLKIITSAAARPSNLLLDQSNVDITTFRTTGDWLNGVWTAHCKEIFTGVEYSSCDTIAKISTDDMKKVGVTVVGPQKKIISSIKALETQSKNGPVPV
Chain of Ribosomal protein S6 kinase beta-1 (Homo sapiens) (P23443 whole entry, looked up): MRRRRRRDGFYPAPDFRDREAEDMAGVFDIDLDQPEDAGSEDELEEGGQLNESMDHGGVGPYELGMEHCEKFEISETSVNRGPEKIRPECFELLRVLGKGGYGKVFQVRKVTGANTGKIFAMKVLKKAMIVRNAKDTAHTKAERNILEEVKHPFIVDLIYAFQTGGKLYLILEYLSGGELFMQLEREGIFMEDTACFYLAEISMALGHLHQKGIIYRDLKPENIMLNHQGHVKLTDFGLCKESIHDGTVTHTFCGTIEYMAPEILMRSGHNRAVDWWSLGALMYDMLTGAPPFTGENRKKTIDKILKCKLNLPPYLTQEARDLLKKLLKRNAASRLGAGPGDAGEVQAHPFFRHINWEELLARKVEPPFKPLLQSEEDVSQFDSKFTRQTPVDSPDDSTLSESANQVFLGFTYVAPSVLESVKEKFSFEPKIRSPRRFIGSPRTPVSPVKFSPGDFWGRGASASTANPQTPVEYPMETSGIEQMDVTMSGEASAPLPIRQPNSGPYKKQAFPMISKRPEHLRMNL
Chain of LIM domain kinase 1 (Homo sapiens) (P53667 whole entry, looked up, the tested form may be a part): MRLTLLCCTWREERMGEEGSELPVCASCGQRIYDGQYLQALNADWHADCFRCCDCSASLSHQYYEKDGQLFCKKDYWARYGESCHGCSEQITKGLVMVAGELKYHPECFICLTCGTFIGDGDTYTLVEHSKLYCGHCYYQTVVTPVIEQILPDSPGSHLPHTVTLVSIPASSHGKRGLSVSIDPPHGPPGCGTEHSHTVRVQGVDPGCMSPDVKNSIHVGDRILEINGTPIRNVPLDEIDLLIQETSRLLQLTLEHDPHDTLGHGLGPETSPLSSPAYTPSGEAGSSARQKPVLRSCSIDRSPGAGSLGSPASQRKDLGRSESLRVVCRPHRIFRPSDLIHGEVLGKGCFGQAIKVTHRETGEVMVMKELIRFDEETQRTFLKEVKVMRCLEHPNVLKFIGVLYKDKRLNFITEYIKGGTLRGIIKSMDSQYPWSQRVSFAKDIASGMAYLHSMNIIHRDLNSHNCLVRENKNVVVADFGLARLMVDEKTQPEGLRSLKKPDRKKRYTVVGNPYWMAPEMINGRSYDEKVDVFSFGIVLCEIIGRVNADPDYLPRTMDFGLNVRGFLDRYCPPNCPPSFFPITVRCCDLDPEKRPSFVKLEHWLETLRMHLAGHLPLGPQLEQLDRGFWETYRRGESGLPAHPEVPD
Chain of Serine/threonine-protein kinase 4 (Q13043 whole entry): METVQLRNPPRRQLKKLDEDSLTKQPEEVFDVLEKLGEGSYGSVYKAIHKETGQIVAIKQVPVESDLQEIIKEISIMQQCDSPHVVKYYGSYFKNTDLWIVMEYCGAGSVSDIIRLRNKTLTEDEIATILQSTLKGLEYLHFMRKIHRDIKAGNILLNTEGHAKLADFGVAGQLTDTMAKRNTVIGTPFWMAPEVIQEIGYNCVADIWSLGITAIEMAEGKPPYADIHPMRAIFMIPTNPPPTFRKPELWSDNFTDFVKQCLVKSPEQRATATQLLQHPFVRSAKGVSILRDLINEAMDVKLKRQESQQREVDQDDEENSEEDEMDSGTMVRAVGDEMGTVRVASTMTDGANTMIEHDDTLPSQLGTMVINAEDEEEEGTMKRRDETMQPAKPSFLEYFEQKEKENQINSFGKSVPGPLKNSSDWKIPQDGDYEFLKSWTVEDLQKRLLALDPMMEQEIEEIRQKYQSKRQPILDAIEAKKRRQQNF
Chain of Epidermal growth factor receptor (Homo sapiens), P00533 [L858R,T790M] (P00533 whole entry T790M/L858R, looked up): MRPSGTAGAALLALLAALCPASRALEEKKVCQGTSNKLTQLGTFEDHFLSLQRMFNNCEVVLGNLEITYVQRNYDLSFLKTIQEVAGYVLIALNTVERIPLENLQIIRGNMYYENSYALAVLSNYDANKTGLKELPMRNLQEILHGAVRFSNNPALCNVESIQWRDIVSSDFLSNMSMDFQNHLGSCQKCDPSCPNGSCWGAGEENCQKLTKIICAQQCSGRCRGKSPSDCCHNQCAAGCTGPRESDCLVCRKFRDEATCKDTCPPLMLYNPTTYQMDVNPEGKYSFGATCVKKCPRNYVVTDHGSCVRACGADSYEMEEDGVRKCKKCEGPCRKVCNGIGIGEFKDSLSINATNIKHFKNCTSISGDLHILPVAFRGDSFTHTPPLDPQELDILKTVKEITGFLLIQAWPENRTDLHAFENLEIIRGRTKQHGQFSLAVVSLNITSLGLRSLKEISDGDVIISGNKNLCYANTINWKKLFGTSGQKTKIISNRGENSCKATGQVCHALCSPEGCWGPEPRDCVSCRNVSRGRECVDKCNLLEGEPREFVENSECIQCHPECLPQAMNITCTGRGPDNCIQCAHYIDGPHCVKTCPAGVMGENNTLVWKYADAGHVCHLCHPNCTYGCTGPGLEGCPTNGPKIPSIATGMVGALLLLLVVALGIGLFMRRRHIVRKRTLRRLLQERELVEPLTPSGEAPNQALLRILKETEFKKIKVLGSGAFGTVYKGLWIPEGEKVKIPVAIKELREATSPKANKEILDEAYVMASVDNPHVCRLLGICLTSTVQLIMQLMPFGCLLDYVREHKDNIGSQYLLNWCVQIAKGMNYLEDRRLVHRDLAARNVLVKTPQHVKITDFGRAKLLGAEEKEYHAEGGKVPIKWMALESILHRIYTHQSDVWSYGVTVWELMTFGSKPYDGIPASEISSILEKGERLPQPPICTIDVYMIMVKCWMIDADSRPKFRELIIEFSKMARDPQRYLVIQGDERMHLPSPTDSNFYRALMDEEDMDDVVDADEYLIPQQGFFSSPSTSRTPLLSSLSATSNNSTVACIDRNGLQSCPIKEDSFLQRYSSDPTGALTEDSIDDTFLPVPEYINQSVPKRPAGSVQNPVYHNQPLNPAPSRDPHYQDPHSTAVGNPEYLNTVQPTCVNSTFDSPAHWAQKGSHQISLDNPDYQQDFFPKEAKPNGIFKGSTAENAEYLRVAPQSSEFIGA

In the case of `COc1cc(N2CCC(N3CCN(C)CC3)CC2)ccc1Nc1ncc(Cl)c(Nc2ccccc2P(C)(C)=O)n1` [BRIGATINIB], the Activity (Mus musculus [1]) is reported as “Active”, the inhibition [2] is reported as < 90% and the inhibition [3] is reported as < 90%. The inhibition [4] was < 90%, the IC50 (Ephrin type-B receptor 1) was > 1000 nM and the inhibition [5] was “inactive”. The inhibition [6] was < 90%, the IC90 [7] was 762 nM and the IC50 [8] was 674 nM. For the same compound, the inhibition [9] was < 90%, the IC90 [10] was 2970 nM and the inhibition [11] was < 90%. For the same compound, the inhibition [12] was < 90%, the inhibition [13] was < 90% and the IC50 [14] was 13 nM. For the same compound, the IC50 [15] was 88 nM, the IC50 [16] was > 1000 nM and the inhibition [17] was < 90%. For the same compound, the inhibition [18] was < 90%, the inhibition [19] was < 90% and the GI50 (NCI-H23) was 1340 nM. For the same compound, the IC50 (Insulin receptor) was 160 nM, the inhibition [20] was < 90% and the IC90 [21] was 366 nM. For the same compound, the Activity (Mus musculus [22]) was “Active”, the inhibition [23] was < 90% and the Activity (BaF3 [24]) was 100%. The inhibition (BaF3 [25]) was “Active”.
